Test results from paper PMC10791897, “Ligand-binding properties of XaffOBP9, a Minus-C odorant-binding protein from Xyleborus affinis (Coleoptera: Curculionidae: Scolytinae)” (Frontiers in Physiology, 2024).
“Also recorded” adds a separate entry of the source. Like-named read-outs stand apart in the source and are kept apart here.

Key:
XaffOBP9 mutant L114A = assay: Fluorescence binding assays of mutant L114A; parameters: species or system Xyleborus affinis; settings: for binding of ligand to L114A mutant protein: fluorescence binding assays, classes by Ki as in Figure 8 legend
Experimental: (§1) The purified XaffOBP9 was dissolved at a final concentration of 2 μM in 50 mM Tris-HCl (pH 7.4). The binding ability of the fluorescent probe to XaffOBP9 was measured using the Infinite 200 PRO microplate plate reader (Tecan, Mannedorf, Switzerland). […] Binding data were collected as three independent measurements. […] The data analysis and binding curve calculations were processed in Prism 8 (Graphpad Software, San Diego, CA, United States).
(§2) Three types of XaffOBP9 mutants (L71A, L114A, Y106A) were generated using the Fast Site-Directed Mutagenesis Kit (Tiangen, Beijing, China) according to manufacturer protocol. Sited-directed mutagenesis primers were listed in Supplementary Table S1 The PCR amplification reaction was 95°C for 2 min, followed by 94 C for 20 s, 55 C for 10 s, 68 C 2.5 min, with final incubation at 68 °C for 5 min. The three mutant proteins were then expressed and purified following the procedures used for wild-type XaffOBP9.

X. affinis = settings: cited from earlier work; for attraction of X. affinis: 2020
XaffOBP9 = assay: Fluorescence binding assays of XaffOBP9 (1-NPN titration and competitive binding); parameters: species or system Xyleborus affinis; settings: for Ki: calculated from IC50: Ki = [IC50]/(1 + [1-NPN]/K1-NPN); for IC50: competitor displacing 1-NPN, 2 μM protein, 50 mM Tris-HCl pH 7.4
Experimental: (§3) The purified XaffOBP9 was dissolved at a final concentration of 2 μM in 50 mM Tris-HCl (pH 7.4). The binding ability of the fluorescent probe to XaffOBP9 was measured using the Infinite 200 PRO microplate plate reader (Tecan, Mannedorf, Switzerland). […] These compounds (>90% puity) were purchased from Yuanye Bio-Technology (Shanghai, China), Alading Chemical Industry (Shanghai, China) and Sigma-Aldrich (MO, United States). Binding data were collected as three independent measurements. […] The data analysis and binding curve calculations were processed in Prism 8 (Graphpad Software, San Diego, CA, United States).

XaffOBP9 mutant Y106A = assay: Fluorescence binding assays of mutant Y106A; parameters: species or system Xyleborus affinis
Experimental: as §1, §2

XaffOBP9 mutant L71A = assay: Fluorescence binding assays of mutant L71A; parameters: species or system Xyleborus affinis; settings: read-out: Kd with 1-NPN
Experimental: as §3, §2

SMILES	binding of ligand to L114A mutant protein (XaffOBP9 mutant L114A)	Ki (XaffOBP9) [µM]	IC50 (XaffOBP9) [µM]	other results
C=C1C2CCC3C2C(C)(C)CCCC13C (single isomer, unassigned; (+)) [(+)-Longifolene]	lost its ability to bind	16.7	19.5	attraction of X. affinis (X. affinis; ref Xu et al.): attraction effect
CC(C)(O)c1ccccc1 [2-Phenyl-2-propanol]	lost its ability to bind	12	14	attraction of X. affinis (X. affinis; ref Xu et al.): attraction effect
C=C1CCC2CC1C2(C)C (stereo not drawn) [(-)-β-pinene]		13.7	16	
C=C(C)[C@@H]1CC=C(C)CC1 [(S)-(-)-Limonene]	lost its ability to bind	14	16.4	
CC1=CC(O)C2CC1C2(C)C [(S)-cis-Verbenol]	weakly bound	13.9	16.2	attraction of this rubber bark beetle (X. affinis; aggregation pheromone, ref Brand et al., 1975, Chen et al., 2019): exhibits attraction effects
C=C1C2CCC(C2)C1(C)C (stereo not drawn) [Camphene]		8	9.3	
c1ccc(Nc2cccc3ccccc23)cc1 [Ligand 1-NPN, N-phentl-1-naphthylamine, reference compound]				Kd (XaffOBP9 mutant Y106A; read-out: Kd with 1-NPN, mutant Y106A): 8.7 µM; Kd (XaffOBP9 mutant L114A; read-out: Kd with 1-NPN, mutant L114A): 14.8 µM; Kd (XaffOBP9; read-out: dissociation constant K 1-NPN, titration of 2 μM protein with 1-NPN, Scatchard plot): 5.91 µM; Kd (XaffOBP9 mutant L71A): 5.97 µM
CC1=CCC2C(C1)C2(C)C (stereo not drawn) [Ligand 3-Carene, 3-Carene]	lost its ability to bind	10.6	12.4	
CCCCCCCCCCCCCCCC(=O)OC [Methyl palmitate]				reduction of relative fluorescence intensity of the [XaffOBP/1-NPN] mixture (XaffOBP9; competitive fluorescence binding curves): did not reduce the relative fluorescence intensity to less than half
C=CC(=C)CCC=C(C)C [Myrcene]	lost its ability to bind	9.8	11.4	
C=C1CCC2(C(C)C)CC12 (stereo not drawn) [Sabinene]	lost its ability to bind	15.6	18.2	
CC1=CCC(=C(C)C)CC1 [Terpinolene]	lost its ability to bind	11.3	13.2	
CCCCCCCCCCCCCC [Tetradecane]	lost its ability to bind	13.5	15.7	change of binding affinity of Y106A compared with WT (XaffOBP9 mutant Y106A; fluorescence binding assays): noticeable decrease in its affinity; also recorded: certain decrease in binding; attraction of X. affinis (X. affinis; ref Xu et al.): attraction effect
CCO [ethanol]				attraction of X. affinis (X. affinis; attractant lure, ref Ranger et al., 2011, Steininger et al., 2015, Lehenberger et al., Cavaletto et al., 2021): only weakly attracted
Cc1cccc(C(C)C)c1 [m-Cymene]	weakly bound	14.8	17.3	
CC1=CC[C@H]2[C@H]3[C@@H]1[C@]2(C)CC[C@H]3C(C)C [α-copaene]	weakly bound	11.4	13.3	
CC1=CCC2CC1C2(C)C (stereo not drawn) [α-pinene]		8.5	9.9	effect on attraction of X. affinis (X. affinis; trapping investigations, ref Miller and Rabaglia, 2009): enhance the attractive effect of ethanol
